From patent US10947188B2, “Small molecule ferroptosis inducers” (THE TRUSTEES OF COLUMBIA UNIVERSITY IN THE CITY OF NEW YORK, priority 2016, dated 2021)

Experiments:
HT-1080 = experiment: Modulatory profiling: Alamar Blue viability, lethal compound cotreated with death modulator (EC50, AUC); type: cell-based; set-up: AUC, modulator HT.3MA / AUC, modulator HT.ALLN / AUC HT.ATA / AUC HT.ActD / AUC HT.BHA / AUC HT.BHT / AUC HT.BocD / AUC HT.CHX / AUC HT.Co2+ / AUC HT.DPQ / AUC HT.EGTA / AUC HT.Lmim / AUC HT.NAD+ / AUC HT.Nec-1 / AUC HT.SP600125 / AUC HT.TLCK / AUC HT.U0126: unit not given beside the values; details: for AUC HT.ATA: HT-1080, modulator ATA; for AUC HT.ActD: HT-1080, modulator ActD; for AUC HT.BHA: HT-1080, modulator BHA; for AUC HT.BHT: HT-1080, modulator BHT; for AUC HT.BocD: HT-1080, modulator BocD; for AUC HT.CHX: HT-1080, modulator CHX; for AUC HT.Co2+: HT-1080, modulator Co2+; for AUC HT.CspA: HT-1080, modulator CspA; for AUC HT.DPQ: HT-1080, modulator DPQ; for AUC HT.EGTA: HT-1080, modulator EGTA; for AUC HT.Gd3+: HT-1080, modulator Gd3+; for AUC HT.LNAME: HT-1080, modulator LNAME; for AUC HT.Lmim: HT-1080, modulator Lmim; for AUC HT.NAD+: HT-1080, modulator NAD+; for AUC HT.NMMA: HT-1080, modulator NMMA; for HT.atoc (AUC) / HT.bCarotene (AUC) / HT.deferox (AUC) / HT.digoxin (AUC) / HT.trolox (AUC) / HT.zVAD (AUC): HT-1080; for HT.atoc (AUC): modulator atoc; for HT.bCarotene (AUC): modulator bCarotene; for HT.deferox (AUC): modulator deferox; for HT.digoxin (AUC): modulator digoxin; for HT.trolox (AUC): modulator trolox; for HT.zVAD (AUC): modulator zVAD; on AUC HT.BHA: reference of the scale not given here; on AUC HT.EGTA: reference of the scale not given here
BJeLR = experiment: as above; type: cell-based, human; set-up: AUC, modulator BJ.Gd3+ / AUC, modulator BJ.LNAME / AUC, modulator BJ.Lmin / AUC, modulator BJ.3MA / AUC, modulator BJ.ALLN / AUC, modulator BJ.Boc D / AUC, modulator BJ.CHX / AUC, modulator BJ.Co2+ / AUC, modulator BJ.Nec-1 / AUC, modulator BJ.Pepstatin / AUC, modulator BJ.TLCK / AUC, modulator BJ.atoc / AUC, modulator BJ.trolox / AUC, modulator BJ.zVAD: unit not given beside the values; details: BJeLR cells, modulatory profile value (AUC); for AUC, modulator BJ.3MA: lethal compound cotreated with modulator 3MA; for AUC, modulator BJ.ALLN: lethal compound cotreated with modulator ALLN; for AUC, modulator BJ.Boc D: lethal compound cotreated with modulator Boc D; for AUC, modulator BJ.CHX: lethal compound cotreated with modulator CHX; for AUC, modulator BJ.Co2+: lethal compound cotreated with modulator Co2+; for AUC, modulator BJ.DPQ: lethal compound cotreated with modulator DPQ; for AUC, modulator BJ.Gd3+: lethal compound cotreated with modulator Gd3+; for AUC, modulator BJ.LNAME: lethal compound cotreated with modulator LNAME; for AUC, modulator BJ.Lmin/NAD+: lethal compound cotreated with modulator Lmin/NAD+; for AUC, modulator BJ.Lmin: lethal compound cotreated with modulator Lmin; for AUC, modulator BJ.NAD+: lethal compound cotreated with modulator NAD+; for AUC, modulator BJ.NMMA: lethal compound cotreated with modulator NMMA; for AUC, modulator BJ.Nec-1: lethal compound cotreated with modulator Nec-1; for AUC, modulator BJ.Pepstatin: lethal compound cotreated with modulator Pepstatin; for AUC, modulator BJ.TLCK: lethal compound cotreated with modulator TLCK
Wherever AUC, modulator BJ.3MA is given: reference of the scale not given here.
Wherever AUC, modulator BJ.ALLN is given: reference of the scale not given here.
Wherever AUC, modulator BJ.Boc D is given: reference of the scale not given here.
Wherever AUC, modulator BJ.CHX is given: reference of the scale not given here.
Wherever AUC, modulator BJ.Co2+ is given: reference of the scale not given here.
Wherever AUC, modulator BJ.DPQ is given: reference of the scale not given here.
Wherever AUC, modulator BJ.Gd3+ is given: reference of the scale not given here.
Wherever AUC, modulator BJ.LNAME is given: reference of the scale not given here.
Wherever AUC, modulator BJ.NAD+ is given: reference of the scale not given here.
Wherever AUC, modulator BJ.NMMA is given: reference of the scale not given here.
Wherever AUC, modulator BJ.Nec-1 is given: reference of the scale not given here.
Wherever AUC, modulator BJ.Pepstatin is given: reference of the scale not given here.
Wherever AUC, modulator BJ.TLCK is given: reference of the scale not given here.

## COC(=O)c1[nH]c2ccc(Br)cc2c1NC(=O)CN1CCN(C2CCCCC2)CC1 [CIL71]
HT-1080
  AUC HT.ATA: 0.03481
  AUC HT.ActD: 0.0007018
  AUC HT.BHA: −0.05622
  AUC HT.BHT: −0.05839
  AUC HT.BocD: 0.01089
  AUC HT.CHX: 0.0761
  AUC HT.Co2+: 0.02342
  AUC HT.CspA: −0.03233
  AUC HT.DPQ: −0.003505
  AUC HT.EGTA: −0.02298
  AUC HT.Gd3+: −0.01552
  AUC HT.LNAME: 0.02366
  AUC HT.Lmim: −0.002609
  AUC HT.NAD+: 0.01546
  AUC HT.NMMA: −0.0007859
  HT.atoc (AUC): 0.03733
  HT.bCarotene (AUC): −0.01281
  HT.deferox (AUC): −0.003654
  HT.digoxin (AUC): −0.01046
  HT.trolox (AUC): −0.01311
  HT.zVAD (AUC): 0.01756
BJeLR
  AUC, modulator BJ.3MA: 0.01151
  AUC, modulator BJ.ALLN: −0.05589
  AUC, modulator BJ.Boc D: 0.0152
  AUC, modulator BJ.CHX: −0.06352
  AUC, modulator BJ.Co2+: 0.02676
  AUC, modulator BJ.DPQ: 0.03052
  AUC, modulator BJ.Gd3+: 0.01394
  AUC, modulator BJ.LNAME: 0.001204
  AUC, modulator BJ.Lmin/NAD+: 0.001502
  AUC, modulator BJ.Lmin: −0.02138
  AUC, modulator BJ.NAD+: −0.03656
  AUC, modulator BJ.NMMA: −0.000118
  AUC, modulator BJ.Nec-1: −0.02956
  AUC, modulator BJ.Pepstatin: −0.01112
  AUC, modulator BJ.TLCK: 0.01514

## COc1ccc(C(=O)C(CN2CCCC2)c2ccccc2)cc1 (stereo not drawn) [CIL72]
HT-1080
  AUC HT.ATA: 0.05533
  AUC HT.ActD: 0.02924
  AUC HT.BHA: −0.04013
  AUC HT.BHT: −0.1002
  AUC HT.BocD: −0.02415
  AUC HT.CHX: 0.1147
  AUC HT.Co2+: 0.1163
  AUC HT.CspA: −0.01912
  AUC HT.DPQ: −0.03157
  AUC HT.EGTA: 0.009608
  AUC HT.Gd3+: −9.532E−05
  AUC HT.LNAME: 0.01226
  AUC HT.Lmim: −0.001821
  AUC HT.NAD+: 0.004195
  AUC HT.NMMA: −0.004443
  HT.atoc (AUC): −0.02111
  HT.bCarotene (AUC): −0.01233
  HT.deferox (AUC): 0.1972
  HT.digoxin (AUC): −0.01413
  HT.trolox (AUC): −0.03591
  HT.zVAD (AUC): 0.05314
BJeLR
  AUC, modulator BJ.3MA: 0.01714
  AUC, modulator BJ.ALLN: 0.00459
  AUC, modulator BJ.Boc D: 0.02672
  AUC, modulator BJ.CHX: 0.2585
  AUC, modulator BJ.Co2+: 0.1176
  AUC, modulator BJ.DPQ: −0.01087
  AUC, modulator BJ.Gd3+: 0.03013
  AUC, modulator BJ.LNAME: 0.001053
  AUC, modulator BJ.Lmin/NAD+: 0.07102
  AUC, modulator BJ.Lmin: 0.004844
  AUC, modulator BJ.NAD+: −0.0366
  AUC, modulator BJ.NMMA: 0.01422
  AUC, modulator BJ.Nec-1: −0.02464
  AUC, modulator BJ.Pepstatin: 0.01988
  AUC, modulator BJ.TLCK: 0.03641

## Cc1[nH]c2c(ccc3ccccc32)c1C1C(CCN)C1(C)C (stereo not drawn) [CIL74]
HT-1080
  AUC HT.ATA: 0.01362
  AUC HT.ActD: 0.02636
  AUC HT.BHA: −0.08659
  AUC HT.BHT: −0.04572
  AUC HT.BocD: 0.01242
  AUC HT.CHX: 0.02524
  AUC HT.Co2+: 0.03244
  AUC HT.CspA: −0.004622
  AUC HT.DPQ: 0.04847
  AUC HT.EGTA: −0.02674
  AUC HT.Gd3+: −0.008213
  AUC HT.LNAME: 0.01925
  AUC HT.Lmim: 0.02034
  AUC HT.NAD+: 0.07664
  AUC HT.NMMA: 9.3282E−05
  HT.atoc (AUC): 0.07412
  HT.bCarotene (AUC): −0.02032
  HT.deferox (AUC): −0.008945
  HT.digoxin (AUC): −0.02586
  HT.trolox (AUC): −0.0236
  HT.zVAD (AUC): 0.01022
BJeLR
  AUC, modulator BJ.3MA: 0.03615
  AUC, modulator BJ.ALLN: −0.02536
  AUC, modulator BJ.Boc D: 0.04324
  AUC, modulator BJ.CHX: 0.01466
  AUC, modulator BJ.Co2+: 0.2135
  AUC, modulator BJ.DPQ: −0.02906
  AUC, modulator BJ.Gd3+: 0.02963
  AUC, modulator BJ.LNAME: 0.001619
  AUC, modulator BJ.Lmin/NAD+: 0.07154
  AUC, modulator BJ.Lmin: 0.007766
  AUC, modulator BJ.NAD+: −0.05906
  AUC, modulator BJ.NMMA: 0.01059
  AUC, modulator BJ.Nec-1: −0.02489
  AUC, modulator BJ.Pepstatin: 0.08294
  AUC, modulator BJ.TLCK: −0.02942
